According to patent US5589477A, “Pyrimidine derivatives and drugs” (Nippon Shinyaku Company, Limited, priority 1990, dated 1996):
Structures can show the parent of a compound that is named as a salt.

The compounds below were run against T1, muscarinic M1 receptors (Rattus norvegicus, UniProt P08482) (assay: Binding assay for muscarinic M1 receptors ([^3 H]pirenzepine displacement, rat brain membranes)). Conditions: 1 nM [^3 H]pirenzepine, pH 7.4, 25° C., 60 minutes.
T1 construct: receptor membrane preparations from rat brain; from tissue; host or cells: rat brain membranes
T1 sequence (P08482 1-460): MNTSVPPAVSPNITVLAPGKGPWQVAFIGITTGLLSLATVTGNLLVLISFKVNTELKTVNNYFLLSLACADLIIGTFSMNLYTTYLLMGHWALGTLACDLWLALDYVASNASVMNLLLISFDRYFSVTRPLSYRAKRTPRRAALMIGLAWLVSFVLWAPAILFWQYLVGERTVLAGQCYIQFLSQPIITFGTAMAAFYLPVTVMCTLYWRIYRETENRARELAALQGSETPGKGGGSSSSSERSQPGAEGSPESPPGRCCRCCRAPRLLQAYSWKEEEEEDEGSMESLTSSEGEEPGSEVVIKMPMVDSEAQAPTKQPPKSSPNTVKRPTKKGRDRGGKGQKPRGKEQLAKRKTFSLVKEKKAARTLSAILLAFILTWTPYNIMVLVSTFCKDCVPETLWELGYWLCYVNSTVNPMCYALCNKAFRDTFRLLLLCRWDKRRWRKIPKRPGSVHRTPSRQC
Procedure: (3) Effect on muscarinic M1 receptors
Binding assay for muscarinic M1 receptors was carried out according to the method of Watson and Yamamura [Life Sci. 3001-3011(1983)]. Namely, the receptor membrane preparations from rat brain were incubated with 1 nM [^3 H]pirenzepine in 10 mM Na/K phosphate buffer solution (pH 7.4) at 25° C. for 60 minutes. 1 μM of atropine was used as a displacer.

Row | Compound | IC50 [nM]
1 | Cc1cc(O[C@H]2CN3CCC2CC3)nc(-c2ccc(F)cc2)n1 [Example 27, (R)-(-)-4-(1-azabicyclo[2,2,2]octo-3-yloxy)-2-(4-fluorophenyl) 6-methylpyrimidine maleate] | 170
2 | Cc1cc(O[C@H]2CN3CCC2CC3)nc(-c2ccc(Cl)cc2)n1 [Example 44, (R)-(-)-4-(1-azabicyclo[2,2,2]octo-3-yloxy)-2-(4-chlorophenyl) 6-methylpyrimidine maleate] | 240
3 | Cc1cc(O[C@H]2CN3CCC2CC3)nc(-c2ccc(O)cc2)n1 [Example 58, (R)-(-)-4-(1-azabicyclo[2,2,2]octo-3-yloxy)-2-(4-hydroxyphenyl) 6-methylpyrimidine maleate] | 810
4 | COc1ccc(-c2nc(O[C@H]3CN4CCC3CC4)cc(C(C)(C)C)n2)cc1 [Example 60, (R)-(-)-4-(1-azabicyclo[2,2,2]octo-3-yloxy)-6-tert-butyl-2-(4-methoxyphenyl)pyrimidine maleate] | 3100
5 | Fc1ccc(-c2nc(O[C@H]3CN4CCC3CC4)cc(C(F)(F)F)n2)cc1 [Example 63, (R)-(-)-4-(1-azabicyclo[2,2,2]octo-3-yloxy)-2-(4-fluorophenyl) 6-trifluoromethylpyrimidine maleate] | 600

What follows are compounds tested on mice (assay: Acute toxicity (mice, p.o.)). Conditions: 1000 mg/kg p.o., male mice, 72 hours.
Format: in vivo
Procedure: Male mice, 6 weeks of age (4 mice/group) were deprived of foods overnight. Test drugs suspended in 0.5% methyl cellulose solution were administered orally to the mice. Whether the animals were dead or not was observed 72 hours after the treatment of the drugs.

Row | Compound | Lethality (Number of dead animals/Number of animals used)
6 | COc1ccc(-c2nc(C)cc(OCCN3CCN(C(c4ccccc4)c4ccccc4)CC3)n2)cc1 [Example 3, 4-[2-(4-diphenylmethylpiperazino)ethoxy]-2-(4-methoxyphenyl)-6-methylpyrimidine] | 0/4
7 | COc1ccc(-c2nc(C)cc(N3CCN(C(c4ccccc4)c4ccccc4)CC3)n2)cc1 [Example 4, 4-(4-diphenylmethylpiperazino)-2-(4-methoxyphenyl)-6-methylpyrimidine] | 0/4
8 | Cc1cc(OCCN2CCN(c3ccccc3)CC2)nc(-c2ccccc2)n1.O=C(O)/C=C\C(=O)O [Example 11, 4-Methyl-2-phenyl-6-[2-(4-phenylpiperazino)ethoxy] pyrimidine maleate] | 0/4
9 | Cc1cc(OCCN2CCN(C(c3ccccc3)c3ccccc3)CC2)nc(-c2ccccc2)n1 [Example 13, 4-[2-(4-diphenylmethylpiperazino)ethoxy]-6-methyl-2-phenylpyrimidine] | 0/4
10 | COc1ccc(-c2nc(C)cc(OCCN3CCN(c4ccccc4)CC3)n2)cc1 [Example 21, 2-(4-methoxyphenyl)-4-methyl-6-[2-(4-phenylpiperazino)ethoxy]pyrimidine] | 0/4
11 | Cc1cc(N2CCN(C(c3ccccc3)c3ccccc3)CC2)nc(-c2ccccc2)n1 [Example 35, 4-(4-diphenylmethylpiperazino)-6-methyl-2-phenylpyrimidine] | 0/4
12 | Cc1cc(O[C@H]2CN3CCC2CC3)nc(-c2ccc(Cl)cc2)n1 [Example 44, (R)-(-)-4-(1-azabicyclo[2,2,2]octo-3-yloxy)-2-(4-chlorophenyl) 6-methylpyrimidine maleate] | 0/4
13 | Cc1cc(O[C@H]2CN3CCC2CC3)nc(-c2ccc(O)cc2)n1 [Example 58, (R)-(-)-4-(1-azabicyclo[2,2,2]octo-3-yloxy)-2-(4-hydroxyphenyl) 6-methylpyrimidine maleate] | 0/4
